Laboratory results from US20210392889A1, “COMPOSITIONS COMPRISING PYRIDINE CARBOXYLATE HERBICIDES WITH PDS INHIBITOR HERBICIDES” (Corteva Agriscience LLC, priority 2018, published 2021).

Experiments:
spring barley (HORVS) = assay: Greenhouse postemergence phytotoxicity on crop, visual injury after 20-22 d; format: in vivo, Hordeum vulgare
Excerpt: (§1) Seeds of the desired test plant species were planted in a 90:10% v/v (volume/volume) mixture of PRO-MIX® BX (Premier Tech Horticulture, Quakertown, Pa., USA) and PROFILE® GREENS GRADE™ (Profile Products LLC, Buffalo Grove, Ill., USA) planting mixture, which typically has a pH of 5.2 to 6.2 and an organic matter content of at least 50 percent, in plastic pots with a surface area of 103.2 square centimeters (cm^2). In some aspects, to ensure good germination and healthy plants, a fungicide treatment and/or other chemical or physical treatment was applied. The plants were grown for 7-36 days (d) in a greenhouse with an approximate 14-hour (h) photoperiod which was maintained at about 23° C. during the day and 22° C. during the night. Nutrients and water were added on a regular basis and supplemental lighting was provided with overhead metal halide 1000-Watt lamps as necessary. The plants were employed for testing when they reached the second or third true leaf stage.
(§2) Emulsifiable concentrates of each of each pyridine carboxylate herbicide (Compound A or Compound B) were prepared at 100 grams acid equivalent per liter (g ae/L). The emulsifiable concentrates also included a safener, cloquintocet-mexyl, at 120 grams active ingredient per liter (g ai/L). An aliquot of each emulsifiable concentrate was placed in a 25 mL glass vial and diluted with an aqueous mixture of 1.25% (v/v) ACTIROB® B esterified rapeseed oil (Bayer Crop Science, Research Triangle Park, N.C., USA) or MSO® Concentrate with LECI-TECH® methylated soybean oil (Loveland Products, Loveland, Colo., USA) to obtain concentrated stock solutions at the highest application rate for each herbicide, based upon a 12 milliliter (mL) application volume at a rate of 187 liters per hectare (L/ha). The concentrated stock solutions were further diluted with an aqueous mixture of 1.25% v/v ACTIROB® B or MSO® Concentrate with LECI-TECH® to obtain stock solutions at reduced application rates for each herbicide. Spray solutions of the herbicide combinations (Compound A or Compound B plus PDS inhibitor herbicide) were prepared by adding weighed amounts or aliquots of the PDS inhibitor herbicide to the stock solutions of Compound A or Compound B to form 12-mL spray solutions in two- or three-way combinations.
(§3) The spray solutions were applied to the plant material with an overhead Mandel track sprayer equipped with 8002E nozzles calibrated to deliver 187 L/ha over an application area of 0.503 square meters (m^2) at a spray height of 18 inches ([…] centimeters (cm)) above the average plant canopy. Control plants were sprayed in the same manner with the solvent blank. All pyridine carboxylate herbicide (component a) application rates are given as “g ae/ha” and all PDS inhibitor herbicide (component b) application rates are given as “g ai/ha.”
(§4) The treated plants and control plants were placed in a greenhouse as described above and watered by sub-irrigation to prevent wash-off of the test compounds. After 20-22 d, the condition of the test plants as compared with that of the control plants was determined visually and scored on a scale of 0 to 100 percent where 0 corresponds to no injury and 100 corresponds to complete kill.

[1] = test system: wild buckwheat (POLCO, Polygonum convolvulus); assay: Greenhouse postemergence herbicidal effect, visual injury after 20-22 d; format: in vivo
Excerpt: as §1, §2, §3, §4

[2] = test system: spring rape (BRSNN, Brassica napus); assay: as above; format: in vivo
Excerpt: as §1, §2, §3, §4

[3] = test system: pigweed (AMARE, Amaranthus retroflexus); assay: as above; format: in vivo
Excerpt: as §1, §2, §3, §4

[4] = test system: Russian thistle (SASKR, Salsola kali); assay: as above; format: in vivo
Excerpt: as §1, §2, §3, §4

[5] = test system: Canada thistle (CIRAR, Cirsium arvense); assay: as above; format: in vivo
Excerpt: as §1, §2, §3, §4

[6] = test system: wild mustard (SINAR, Sinapis arvensis); assay: as above; format: in vivo
Excerpt: as §1, §2, §3, §4

[7] = test system: common lambsquarters (CHEAL, Chenopodium album L.); assay: as above; format: in vivo
Excerpt: as §1, §2, §3, §4

[8] = test system: wild chamomile (MATCH, Matricaria chamomilla); assay: as above; format: in vivo
Excerpt: as §1, §2, §3, §4

spring wheat (TRZAS) = assay: Greenhouse postemergence phytotoxicity on crop, visual injury after 20-22 d; format: in vivo, Triticum aestivum
Excerpt: as §1, §2, §3, §4

[9] = test system: kochia (KCHSC, Kochia scoparia); assay: Greenhouse postemergence herbicidal effect, visual injury after 20-22 d; format: in vivo
Excerpt: as §1, §2, §3, §4

[10] = test system: barnyardgrass (ECHCG, Echinochloa crus-galli); assay: as above; format: in vivo; settings: 12.5 g/ha, Table 4
Excerpt: as §1, §2, §3, §4

[11] = test system: velvetleaf (ABUTH, Abutilon theophrasti); assay: as above; format: in vivo; settings: 12.5 g/ha, Table 4
Excerpt: as §1, §2, §3, §4

[12] = test system: Italian ryegrass (LOLMU, Lolium multiflorum.); assay: as above; format: in vivo; settings: 12.5 g/ha, Table 4
Excerpt: as §1, §2, §3, §4

[13] = test system: large crabgrass (DIGSA, Digitaria sanguinalis); assay: as above; format: in vivo; settings: 12.5 g/ha, Table 4
Excerpt: as §1, §2, §3, §4

[14] = test system: common rice (ORYSA, Oryza sativa); assay: as above; format: in vivo; settings: 12.5 g/ha, Table 4
Excerpt: as §1, §2, §3, §4

[15] = test system: ivyleaf morningglory (IPOHE, Ipomoea hederacea); assay: as above; format: in vivo; settings: 12.5 g/ha, Table 4
Excerpt: as §1, §2, §3, §4

[16] = test system: wild pansy (VIOTR, Viola tricolor); assay: as above; format: in vivo; settings: 12.5 g/ha, Table 4
Excerpt: as §1, §2, §3, §4

[17] = test system: giant foxtail (SETFA, Setaria faberi); assay: as above; format: in vivo; settings: 12.5 g/ha, Table 4
Excerpt: as §1, §2, §3, §4

[18] = test system: broad-leaf dock (RUMOB, Rumex obtusifolius); assay: as above; format: in vivo; settings: 12.5 g/ha, Table 4
Excerpt: as §1, §2, §3, §4

[19] = test system: soybean (GLXMA=Glycine max); assay: as above; format: in vivo; settings: 12.5 g/ha, Table 4
Excerpt: as §1, §2, §3, §4

[20] = test system: winter rape (BRSNW, Brassica napus); assay: as above; format: in vivo; settings: 60 g/ha, Table 1
Excerpt: as §1, §2, §3, §4

What does the source list for `Cn1cc(-c2ccccc2)c(=O)c(-c2cccc(C(F)(F)F)c2)c1` [Fluridone, 1-methyl-3-phenyl-5-[3-(trifluoromethyl)-phenyl]-4(1H)-pyridinone, reference compound]?
visual injury Obs (spring barley (HORVS); 280 g/ha, Table 3): 0%; visual injury Obs ([1]; 280 g/ha, Table 3): 13%; visual injury Obs ([2]; 280 g/ha, Table 3): 18%; visual injury Obs ([3]; 280 g/ha, Table 3): 23%; visual injury Obs ([4]; 280 g/ha, Table 3): 0%; visual injury Obs ([5]; 280 g/ha, Table 3): 18%; visual injury Obs ([6]; 280 g/ha, Table 3): 45%; visual injury Obs ([7]; 280 g/ha, Table 3): 13%; visual injury Obs ([8]; 280 g/ha, Table 3): 5%; visual injury Obs (spring wheat (TRZAS); 280 g/ha, Table 3): 0%

`CCC(Oc1ccc(F)c(C(F)(F)F)c1)C(=O)NCc1ccccc1` (stereo not shown) [Beflubutamid, 2-[4-fluoro-3-(trifluoromethyl)phenoxy]-N-(phenylmethyl)butanamide, reference compound] was tested. Which “visual injury Obs” value (spring barley (HORVS); 42.5 g/ha, Table 2) did it give?
Its value is 18%.

And the “visual injury Obs” value ([1]; 42.5 g/ha, Table 2)?
Its value is 0%.

What about the “visual injury Obs” value ([2]; 42.5 g/ha, Table 2) of the same compound?
Its value is 25%.

What about the “visual injury Obs” value ([4]; 42.5 g/ha, Table 2) of the same compound?
Its value is 0%.

And the “visual injury Obs” value ([6]; 42.5 g/ha, Table 2)?
Its value is 5%.

What about the “visual injury Obs” value ([7]; 42.5 g/ha, Table 2) of the same compound?
Its value is 0%.

And the “visual injury Obs” value ([9]; 42.5 g/ha, Table 2)?
The value was 0%.

What about the “visual injury Obs” value ([8]; 42.5 g/ha, Table 2) of the same compound?
The value was 0%.

And the “visual injury Obs” value (spring wheat (TRZAS); 42.5 g/ha, Table 2)?
The value was 0%.

What does the source list for `O=C(Nc1ccc(F)cc1)c1cccc(Oc2cccc(C(F)(F)F)c2)n1` [Picolinafen, N-(4-fluorophenyl)-6-[3-(trifluoromethyl)phenoxy]-2-pyridinecarboxamide, reference compound]?
visual injury Obs [10]: 0%; visual injury Obs [11]: 15%; visual injury Obs [12]: 0%; visual injury Obs ([2]; 12.5 g/ha, Table 4): 28%; visual injury Obs [13]: 50%; visual injury Obs ([5]; 12.5 g/ha, Table 4): 5%; visual injury Obs [14]: 5%; visual injury Obs [15]: 5%; visual injury Obs [16]: 0%; visual injury Obs [17]: 0%; visual injury Obs [18]: 0%; visual injury Obs ([7]; 12.5 g/ha, Table 4): 20%; visual injury Obs [19]: 20%

With `O=C(Nc1ccc(F)cc1F)c1cccnc1Oc1cccc(C(F)(F)F)c1` [Diflufenican, N-(2,4-difluorophenyl)-2-[3-(trifluoromethyl)phenoxy]-3-pyridinecarboxamide, reference compound] as the compound, how does the visual injury (spring barley (HORVS); 60 g/ha, Table 1) read?
The visual injury was 13%.

What about the visual injury ([1]; 60 g/ha, Table 1) of the same compound?
The visual injury was 10%.

What about the visual injury ([3]; 60 g/ha, Table 1) of the same compound?
The visual injury was 20%.

And the visual injury ([4]; 60 g/ha, Table 1)?
The visual injury was 18%.

And the visual injury ([5]; 60 g/ha, Table 1)?
The visual injury was 5%.

What about the visual injury [20] of the same compound?
The visual injury was 18%.

What about the visual injury ([6]; 60 g/ha, Table 1) of the same compound?
Its visual injury is 23%.

What about the visual injury ([7]; 60 g/ha, Table 1) of the same compound?
Its visual injury is 13%.

And the visual injury ([9]; 60 g/ha, Table 1)?
Its visual injury is 13%.

What about the visual injury ([8]; 60 g/ha, Table 1) of the same compound?
Its visual injury is 0%.

And the visual injury (spring wheat (TRZAS); 60 g/ha, Table 1)?
The visual injury was 0%.
